Values quoted from earlier work in patent publication US20080131503A1 (priority 2005, published 2008).

Settings: oral

CC(C)c1c(C(=O)Nc2ccccc2)c(-c2ccccc2)c(-c2ccc(F)cc2)n1CC[C@@H](O)C[C@@H](O)CC(=O)O [Atorvastatin]
Systemic availability of HMG-CoA reductase inhibitory activity: approximately 30%
